Laboratory results reported in PubChem BioAssay AID1963967 (Molecular Pharmacology Branch, DTP, NCI, 2024).

System: 855422-203-R-J1-PDC spheroids with HUVEC/MSC, viability
Test: Anticancer human tumor 855422-203-R-J1-PDC patient-derived bladder carcinoma cell line growth inhibition [PI3K]
Conditions: for IC50: curve of first compound; for viability, T/C: stronger effect = lower value
Outline: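 Agents were dosed from a top concentration near clinical Cmax (otherwise 10 microM) in half-log decrements, alone or combined with PI3K inhibitors. The spheroids contain tumor cells plus endothelial (HUVEC) and MSC stroma; viability is measured.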

[1] = second compound 0.0316 µM, first compound 0.0316 µM
[2] = second compound 0.0316 µM, first compound 0.1 µM
[3] = second compound 0.0316 µM, first compound 0.316 µM
[4] = second compound 0.0316 µM, first compound 1 µM
[5] = second compound 0.0316 µM, first compound 3.16 µM
[6] = second compound 0.0316 µM, first compound 10 µM
[7] = second compound 0.1 µM, first compound 0.0316 µM
[8] = second compound 0.1 µM, first compound 0.1 µM
[9] = second compound 0.1 µM, first compound 0.316 µM
[10] = second compound 0.1 µM, first compound 1 µM
[11] = second compound 0.1 µM, first compound 3.16 µM
[12] = second compound 0.1 µM, first compound 10 µM
[13] = second compound 0.316 µM, first compound 0.0316 µM
[14] = second compound 0.316 µM, first compound 0.1 µM
[15] = second compound 0.316 µM, first compound 0.316 µM
[16] = second compound 0.316 µM, first compound 1 µM
[17] = second compound 0.316 µM, first compound 3.16 µM
[18] = second compound 0.316 µM, first compound 10 µM
[19] = second compound 1 µM, first compound 0.0316 µM
[20] = second compound 1 µM, first compound 0.1 µM
[21] = second compound 1 µM, first compound 0.316 µM
[22] = second compound 1 µM, first compound 1 µM
[23] = second compound 1 µM, first compound 3.16 µM
[24] = second compound 1 µM, first compound 10 µM
[25] = second compound 3.16 µM, first compound 0.0316 µM
[26] = second compound 3.16 µM, first compound 0.1 µM
[27] = second compound 3.16 µM, first compound 0.316 µM
[28] = second compound 3.16 µM, first compound 1 µM
[29] = second compound 3.16 µM, first compound 3.16 µM
[30] = second compound 3.16 µM, first compound 10 µM
[31] = second compound 10 µM, first compound 0.0316 µM
[32] = second compound 10 µM, first compound 0.1 µM
[33] = second compound 10 µM, first compound 0.316 µM
[34] = second compound 10 µM, first compound 1 µM
[35] = second compound 10 µM, first compound 3.16 µM
[36] = second compound 10 µM, first compound 10 µM
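Note: agents incubated with spheroids for one week before read-out.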
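Throughout, for viability, T/C: 100% = DMSO vehicle-treated control wells.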

Compound: C#Cc1c(F)ccc2cc(O)cc(-c3ncc4c(N5CC6CCC(C5)N6)nc(OCC56CCCN5CC(F)C6)nc4c3F)c12 (stereo unspecified) + Cc1nc(NC(=O)N2CCCC2C(N)=O)sc1-c1ccnc(C(C)(C)C(F)(F)F)c1
- IC50 (second compound 0.0316 µM): > 10000 nM
- IC50 (second compound 0.1 µM): > 10000 nM
- IC50 (second compound 0.316 µM): > 10000 nM
- IC50 (second compound 1 µM): > 10000 nM
- IC50 (second compound 3.16 µM): < 31.6 nM
- IC50 (second compound 10 µM): < 31.6 nM
- viability, T/C [1]: 106%
- viability, T/C [2]: 92.8%
- viability, T/C [3]: 108%
- viability, T/C [4]: 95%
- viability, T/C [5]: 115%
- viability, T/C [6]: 115%
- viability, T/C [7]: 100%
- viability, T/C [8]: 88.6%
- viability, T/C [9]: 103%
- viability, T/C [10]: 93.9%
- viability, T/C [11]: 115%
- viability, T/C [12]: 113%
- viability, T/C [13]: 91.5%
- viability, T/C [14]: 92.9%
- viability, T/C [15]: 97.6%
- viability, T/C [16]: 94.4%
- viability, T/C [17]: 97.4%
- viability, T/C [18]: 102%
- viability, T/C [19]: 70.5%
- viability, T/C [20]: 78.3%
- viability, T/C [21]: 70.7%
- viability, T/C [22]: 73.2%
- viability, T/C [23]: 75%
- viability, T/C [24]: 63.3%
- viability, T/C [25]: 41.5%
- viability, T/C [26]: 48.6%
- viability, T/C [27]: 47.1%
- viability, T/C [28]: 42.9%
- viability, T/C [29]: 40.6%
- viability, T/C [30]: 31.8%
- viability, T/C [31]: 24.6%
- viability, T/C [32]: 21.5%
- viability, T/C [33]: 22.7%
- viability, T/C [34]: 22.3%
- viability, T/C [35]: 19%
- viability, T/C [36]: 7.62%

Compound: CC(Cn1ccc(-c2ccc(C#N)c(Cl)c2)n1)NC(=O)c1cc(C(C)O)[nH]n1 (stereo unspecified) + Cc1nc(NC(=O)N2CCCC2C(N)=O)sc1-c1ccnc(C(C)(C)C(F)(F)F)c1
- IC50 (second compound 0.0316 µM): > 10000 nM
- IC50 (second compound 0.1 µM): > 10000 nM
- IC50 (second compound 0.316 µM): > 10000 nM
- IC50 (second compound 1 µM): > 10000 nM
- IC50 (second compound 3.16 µM): < 31.6 nM
- IC50 (second compound 10 µM): < 31.6 nM
- viability, T/C [1]: 110%
- viability, T/C [2]: 87.1%
- viability, T/C [3]: 114%
- viability, T/C [4]: 102%
- viability, T/C [5]: 102%
- viability, T/C [6]: 87.5%
- viability, T/C [7]: 104%
- viability, T/C [8]: 94.6%
- viability, T/C [9]: 105%
- viability, T/C [10]: 91.6%
- viability, T/C [11]: 98.5%
- viability, T/C [12]: 89.2%
- viability, T/C [13]: 91.2%
- viability, T/C [14]: 88.2%
- viability, T/C [15]: 94.4%
- viability, T/C [16]: 89.6%
- viability, T/C [17]: 98.1%
- viability, T/C [18]: 86.7%
- viability, T/C [19]: 71.7%
- viability, T/C [20]: 76.7%
- viability, T/C [21]: 73.9%
- viability, T/C [22]: 77.8%
- viability, T/C [23]: 81.3%
- viability, T/C [24]: 62.3%
- viability, T/C [25]: 44.9%
- viability, T/C [26]: 45%
- viability, T/C [27]: 48.5%
- viability, T/C [28]: 46.5%
- viability, T/C [29]: 49.9%
- viability, T/C [30]: 37%
- viability, T/C [31]: 24.4%
- viability, T/C [32]: 22.5%
- viability, T/C [33]: 22%
- viability, T/C [34]: 26.9%
- viability, T/C [35]: 28%
- viability, T/C [36]: 17.4%

Compound: CC1(C)CCC(Nc2ncc(C(F)(F)F)c(-c3c[nH]c4c(P(C)(C)=O)c(C#N)ccc34)n2)CN1 (stereo unspecified) + Cc1nc(NC(=O)N2CCCC2C(N)=O)sc1-c1ccnc(C(C)(C)C(F)(F)F)c1
- IC50 (second compound 0.0316 µM): < 31.6 nM
- IC50 (second compound 0.1 µM): < 31.6 nM
- IC50 (second compound 0.316 µM): < 31.6 nM
- IC50 (second compound 1 µM): < 31.6 nM
- IC50 (second compound 3.16 µM): < 31.6 nM
- IC50 (second compound 10 µM): < 31.6 nM
- viability, T/C [1]: 27%
- viability, T/C [2]: 25.1%
- viability, T/C [3]: 25.5%
- viability, T/C [4]: 29.4%
- viability, T/C [5]: 26.9%
- viability, T/C [6]: 7.04%
- viability, T/C [7]: 26%
- viability, T/C [8]: 23.9%
- viability, T/C [9]: 25%
- viability, T/C [10]: 26.7%
- viability, T/C [11]: 28%
- viability, T/C [12]: 7.41%
- viability, T/C [13]: 22.5%
- viability, T/C [14]: 23%
- viability, T/C [15]: 25%
- viability, T/C [16]: 22%
- viability, T/C [17]: 18.5%
- viability, T/C [18]: 5.22%
- viability, T/C [19]: 20.2%
- viability, T/C [20]: 20.2%
- viability, T/C [21]: 18.7%
- viability, T/C [22]: 19.6%
- viability, T/C [23]: 17.5%
- viability, T/C [24]: 2.99%
- viability, T/C [25]: 16.3%
- viability, T/C [26]: 15.4%
- viability, T/C [27]: 13.3%
- viability, T/C [28]: 12.9%
- viability, T/C [29]: 10.8%
- viability, T/C [30]: 0.7%
- viability, T/C [31]: 11.8%
- viability, T/C [32]: 10.2%
- viability, T/C [33]: 8.26%
- viability, T/C [34]: 8.63%
- viability, T/C [35]: 6.11%
- viability, T/C [36]: 0.26%
